Measurements taken from ChEMBL document CHEMBL3507680, “University of Dundee, Gates Library screen for HepG2 cell viability”.

Experiment: Human HepG2 cell viability assay in 384 well format
Format: toxicity, cell-based
Parameters: dose 125 nL, time 70.5 hour; cytotoxicity at 70.5 h: concentration not given beside the values
Conditions: HepG2 cells, read-out: Inhibition

Structure (SMILES) | cytotoxicity at 70.5 h [%]
Cc1cccc(CN2CC3(CCN(C(=O)C4CC4)CC3)OCC2=O)n1 | 1.74
Fc1ccc(CN2CC[C@H]3O[C@@H](COCC4CCOCC4)CC[C@H]32)cc1 | 18.1
CN(Cc1ccc(F)cc1)CC1(O)CCN(C(=O)c2cccs2)C1 (stereo not drawn) | 2.73
COc1ccccc1C(=O)NC(CC(=O)O)c1cccs1 (stereo not drawn) | -3.76
COc1ccc(C(CNC(=O)c2c(C)noc2C)N(C)C)cc1 (stereo not drawn) | 21.1
Cn1ncc2c1C(COCC1CC1)CN(Cc1cccnc1)C2 (stereo not drawn) | -4.66
CN1CC[C@H](c2nnc(-c3cncn3C)o2)C1 | -0.523
Cc1c[nH]c(CN2CCOC(c3ccc(Cl)c(Cl)c3)C2)c(C)c1=O (stereo not drawn) | 5.88
Cc1cccc(N2CCN(C(=O)C3CC4(CCNCC4)CN3)CC2)n1 (stereo not drawn) | 5.27
Cc1ccc(CNCc2c(C(C)C)nn(C)c2N2CCOCC2)s1 | -19.6
CC1CN(C)CCN1C(=O)COc1cccc(Oc2ccccn2)c1 (stereo not drawn) | 18.2
NC(=O)C1CCCN(c2ncnc3c2Cc2ccccc2OC3)C1 (stereo not drawn) | 19
O=C(NCC1CCCO1)c1nc2c(s1)CCCN2CC1CC1 (stereo not drawn) | -2.36
CC(=O)N(Cc1ncc(C(C)C)o1)C1CCN(CCn2cccn2)C1 (stereo not drawn) | 4.58
CC(Cc1cnccn1)NC(=O)COc1ccc(F)cc1F (stereo not drawn) | 3.61
CCc1nc(CC(=O)NC(C#N)CC)cs1 (stereo not drawn) | -0.988
COC1COC2(CCN(Cc3ccccc3C)CC2)C1 (stereo not drawn) | -13.2
Cc1nc(CN2CCC23CCN(C(=O)c2ccncc2)CC3)cs1 | -9.81
CNC(=O)[C@@H]1C[C@@H](N)CN1c1nc(N2CCCC2)nc(C)c1C | -10.2
COc1ccc(OC)c(C2CCN(C(=O)[C@H]3CC[C@@H](O)CC3)C2)c1 (stereo partly drawn) | -9.68
COCCNC(=O)Nc1ccc(F)c(C(N)=O)c1 | -6.9
Cc1nc(C)n(C2CCCN(C(=O)Cc3cccnc3)C2)n1 (stereo not drawn) | 3.66
c1ccc(OCc2n[nH]c3c2CN(Cc2cccs2)C3)nc1 | -0.121

Structure (SMILES) | cytotoxicity at 70.5 h [%]
CCn1cc(CN2CCN(CC(O)c3ccc(C)cc3C)CC2)c(C)n1 (stereo not drawn) | -6.8
CCn1ncc(Nc2[nH]cnc3nncc2-3)c1C | -3.49
COCCCN1CCCN(C(C)C(=O)Nc2ccnn2C(C)C)CC1 (stereo not drawn) | -4
CS(=O)(=O)NCC1Cc2ccccc2O1 (stereo not drawn) | -0.512
CCc1nc(CN(C)C2CCN(CC(=O)N3CCOCC3)C2)no1 (stereo not drawn) | -1.36
OCCNc1cc(-c2ccncc2)ncn1 | 0.654
NC(=O)CN1CCC(C(=O)NCc2ccc3c(c2)OCCCO3)CC1 | -8.05
CO[C@@H]1CCC[C@@H](NC(=O)CCCn2cncn2)[C@H]1O | -1.73
COCCN1C(=O)[C@]2(CC[C@@H]3CN(C(=O)NCC(C)C)C[C@@H]32)N=C1C | -10
Cc1ccc(C(=O)NCCN2CCOCC2)c(=O)[nH]1 | -11.5
C=C(C)COc1cccc(CNCCc2nc(N)cc(O)n2)c1 | -9.19
CCc1nnc(CN(C)c2nccc(N3CCCC(O)C3)n2)o1 (stereo not drawn) | 27.2
COc1ccccc1CNC1(CCO)CCOCC1 | 20.6
Cn1ccnc1CN1CCCC(Cc2ccnc3ccncc23)CC1 (stereo not drawn) | -5.22
CCc1cc(N(C)Cc2ccno2)n2nc(C)c(C)c2n1 | -2.75
Cc1occc1C(=O)Nc1ccnc(OC2CCOC2)c1 (stereo not drawn) | -7.45
C/C=C(\C)CN1C[C@@H](NC(=O)c2ccc(O)c(Cl)c2)C[C@H]1C(=O)NCC | -11
O=C1N[C@@H]2CCN(C(=O)C3CC3)[C@@H]2C(=O)N1c1ccc(F)cc1 | -13.5
CCCc1n[nH]c(C2CN(C(=O)c3ccco3)CCO2)n1 (stereo not drawn) | -10.8
CC(CN1CCC2(CC1)N=C(c1cccnc1)NC2=O)c1ccccc1 (stereo not drawn) | -7.3
CCC(C)(C)n1nnnc1C(c1cccs1)N1CCc2ccccc2C1 (stereo not drawn) | 0.836
CC(C)N1CCc2c(CNC(=O)c3nccn3C)cncc2C1 | -4.9
CNC(=O)c1ccc(C2CN(C(=O)c3c[nH]nc3C)CCO2)nc1 (stereo not drawn) | -1.61

Structure (SMILES) | cytotoxicity at 70.5 h [%]
CC(=O)Nc1nc(C(=O)N2CCCC2c2noc(C(C)C)n2)cs1 (stereo not drawn) | 1.7
CCCS(=O)(=O)N1C[C@H]2C[C@H](C(=O)N3CCOCC3)[C@@H](C1)O2 | -4.21
Cc1noc(C)c1CS(=O)(=O)Cc1nc(C2CC2)no1 | -0.106
CCCNC(=O)c1nc2c(o1)CN(C(C)=O)C2 | -9.4
CCOC[C@H]1CC[C@H]2[C@H](CCN2S(=O)(=O)Cc2ccccc2)O1 | -1.8
COc1cccc(F)c1C(C)NC(=O)NCc1cnc(C)s1 (stereo not drawn) | -1.56
O=C(C1CC(F)(F)C1)N1CC[C@H]2OCC[C@@]2(COCC2CC2)C1 | -1.76
CC(C)(C)C(=O)N1C[C@H](c2ccsc2)[C@H]2CN(Cc3cccs3)CC[C@H]21 | 0.661
CC(C)C1=NOC2(CCN(Cc3c[nH]c4ccccc34)CC2)C1 | 4.04
COc1ccc(S(=O)(=O)N2CCC[C@@H]3CN(C(=O)C4CC4)C[C@@H]32)cc1 | 50
CCN1CC[C@@]2(C(=O)N3CCOCC3)CCN(C(=O)NC)CC[C@@H]12 | -10.8
CC(CNCc1ccc(F)cc1)Oc1ccccn1 (stereo not drawn) | -17.7
Cc1ncc(CNC(=O)CCc2cccs2)c(C2CCCN2C)n1 (stereo not drawn) | -4.28
COCCNC(=O)c1cnc(N(C)C)nc1C | -5.03
COc1cccc(COCC(=O)N2CCCN(CC(N)=O)CC2)c1 | -9.55
COc1cccc(S(=O)(=O)CCNCCn2cccn2)c1 | -10.6
CN1CCN(C[C@H]2CN3CC[C@H]2C[C@@H]3CNC(=O)c2ccco2)CC1 | -6.36
CN(C)c1ncc(CN2CCC(c3nnsc3S(C)(=O)=O)CC2)cn1 | -19.4
O=C(CC(SC1CCCCC1)C(=O)O)c1ccc(Br)cc1 (stereo not drawn) | 0.38
CCc1nc2n(n1)CC(NCC(=O)Nc1nccs1)CC2 (stereo not drawn) | 8
CCc1nc(C)c(CN2CCOC(Cc3cccc4ccccc34)C2)[nH]1 (stereo not drawn) | -2.51
Cc1nc2sccn2c1CNc1ccc(C(=O)O)cc1 | -7.07
Cc1cnn(CC2CCCCN2C(=O)c2cc(Cl)c[nH]2)c1 (stereo not drawn) | 7.01

Structure (SMILES) | cytotoxicity at 70.5 h [%]
CCc1cc(N2CCS(=O)(=O)CC2)n2nc(C)c(C)c2n1 | -5.71
Cc1cnc(CN(C)C2CCN(Cc3nccn3C)C2)o1 (stereo not drawn) | -3.1
COc1cc(C#N)ccc1OCC(=O)NS(=O)(=O)c1ccccc1 | -7.96
OC[C@@H]1CCCN1c1ccc(-c2nc(CCc3ccccc3)no2)cn1 | -4.61
O=C(N1CCOCC1)N1CCc2ncnc(NC3CC3)c2CC1 | 21
Cc1nnc(CN2CCC3(CCC(=O)N(C4CC4)C3)CC2)o1 | 11.6
COc1ccc2c(c1)[nH]c1c(N(C)CC3OCCO3)ncnc12 | 7.79
CCN(CC)c1ccc(C(=O)N2CCCC2Cn2cc(C)cn2)cn1 (stereo not drawn) | -5.59
COc1ccc(-c2n[nH]cc2CN2CCSCC2)c(OC)c1 | -7.44
Cc1cc(N2CCSCC2)ccc1NC(=O)N(CCO)C1CC1 | -5.59
CCn1nc(C)c(CN2CCCC(c3ccc(C(=O)O)cc3)C2)c1C (stereo not drawn) | 24.4
Cc1nn(C)c(C)c1C1CCCN1CC(=O)Nc1cccnc1 (stereo not drawn) | 23.1
Cc1cnn(CC2CN(CC(=O)N(C)Cc3ccccc3)CCO2)c1 (stereo not drawn) | 2.55
CN(C)C(=O)COCc1cncc2c1CCN(C1CCOCC1)C2 | -7.93
CCC(CNC(=O)c1ccc(=O)[nH]n1)N1CCc2ccccc2C1 (stereo not drawn) | -10.3
Cc1cc(NC(=O)CN2CCCCC2Cn2nc(C)nc2C)on1 (stereo not drawn) | -8.71
O=C(OCC1CCCN1)c1cccc(NC(=O)c2ccco2)c1 (stereo not drawn) | -14.8
Cc1cc(C)nc(Nc2ccc(C3CCCCN3)cn2)n1 (stereo not drawn) | 18.8
CC(C)N1CC(c2ccnc(Nc3nccs3)n2)C1 | -10.4
CN1CCN(C(=O)c2cc(-c3cccs3)cs2)CC1 | -10.5
OC(CNCCc1nnc2ccccn12)c1ccc(F)c(F)c1 (stereo not drawn) | -6.79
CC(C)CC(CCO)CNC(=O)N1CCCC1(C)C (stereo not drawn) | 2.81
COCCN1CCN(CCCS(=O)(=O)c2ccccc2)CC1C (stereo not drawn) | 0.059

Structure (SMILES) | cytotoxicity at 70.5 h [%]
Cc1noc(C)c1NS(=O)(=O)c1cc(C(=O)O)cc(Cl)c1Cl | -4.5
O=C(NCC1(Sc2ccccc2)CC1)c1c[nH]nn1 | -0.96
O=C(c1ccc2[nH]ccc2c1)N1CCn2cc(CN3CCCC3)nc2C1 | -13.7
COC(C)c1cccc(NCc2cccs2)c1 (stereo not drawn) | -3.58
Cc1ccc([C@]2(O)CC[C@H]3CN(Cc4ccc(Cl)cc4Cl)C[C@H]32)nc1 | 27.6
Cc1cc(-c2ccccc2)nc(C2CCCN2S(C)(=O)=O)n1 (stereo not drawn) | -5.33
O=C(CCCn1cncn1)N1CCCC1c1noc(C2CC2)n1 (stereo not drawn) | -3.05
CC(C)n1nc(CN2CCCC2=O)c2c1CN(C(=O)c1ccco1)C2 | -5.68
CC1c2cccn2CCN1C(=O)CCc1nc(-c2ccccc2)no1 (stereo not drawn) | -5.32
CC(=O)N1CCC(NC(=O)CN2CCCc3c(F)ccc(C)c32)CC1 | -4.42
CCOC(=O)N1CC(=O)N(Cc2cccc(OC)c2OC)CC(O)C1 (stereo not drawn) | -5.06
Cc1nc2n(n1)CC(NCc1ccnc(-c3ccccc3)n1)CC2 (stereo not drawn) | -2.5
CC(c1ccco1)N(C)Cc1cc2cc3c(cc2[nH]c1=O)OCO3 (stereo not drawn) | -8.06
CC(C)C(=O)N(C)CC(=O)Nc1ccc(Br)cn1 | -2.8
COc1ccc(C(=O)N2CCCCC2Cn2cccn2)c(F)c1 (stereo not drawn) | -13.3
COCC1CN(Cc2c(C)noc2C)Cc2cn(C)nc21 (stereo not drawn) | 10.9
c1ccc2sc(N3CCOC(Cn4cccn4)C3)nc2c1 (stereo not drawn) | 3.57
CCc1nc2c(N3CCC4(CC3)CC(=O)N(CC)C4)ncnc2o1 | -1.14
CN1CCCC(c2cccc(CCC(=O)NCc3ccccn3)n2)C1 (stereo not drawn) | -7.64
O=C(Nc1cnn(Cc2ccc(Cl)cc2)c1)N1CCCC1CO (stereo not drawn) | -7.38
CNc1nc2c(s1)C(c1ccc(F)cc1Cl)CC(=O)N2 (stereo not drawn) | 2.52
